Test results as given in PubChem BioAssay AID248 (DTP/NCI, 2004).
Where “and” joins values, the source holds several entries; their conditions need not be identical. Equal entries are not always repeated. Toxic doses and inconclusive results are not listed. Rule as the data show it: active = T/C of 150% or more; inactive = T/C below 125%.

System: L1210 leukemia ip in BDF1 mice, survival T/C
Test: NCI In Vivo Anticancer Drug Screen. Data for tumor model L1210 Leukemia (intraperitoneal) in B6D2F1 (BDF1) mice
Conditions: endpoint: mean survival time, higher = longer survival
Outline: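 Survival endpoint. Drug-treated group vs vehicle group, expressed as T divided by C. Tumor passaged by transplantation.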

[1] = dose: 50.0 mg/kg/injection, schedule: Q01DX009 (ip), vehicle: Klucel (hydroxypropylcellulose) (HPC)
[2] = dose: 100.0 mg/kg/injection, schedule: Q01DX001 (ip), vehicle: Klucel (hydroxypropylcellulose) (HPC)
[3] = dose: 100.0 mg/kg/injection, schedule: Q01DX009 (ip), vehicle: Klucel (hydroxypropylcellulose) (HPC)
[4] = dose: 200.0 mg/kg/injection, schedule: Q01DX001 (ip), vehicle: Klucel (hydroxypropylcellulose) (HPC)
[5] = dose: 300.0 mg/kg/injection, schedule: Q01DX009 (ip), vehicle: Klucel (hydroxypropylcellulose) (HPC)
[6] = dose: 100.0 mg/kg/injection, schedule: Q04DX003 (ip), vehicle: saline with Tween-80
[7] = dose: 200.0 mg/kg/injection, schedule: Q04DX003 (ip), vehicle: saline with Tween-80
[8] = dose: 400.0 mg/kg/injection, schedule: Q04DX003 (ip), vehicle: saline with Tween-80
[9] = dose: 50.0 mg/kg/injection, schedule: Q01DX001 (ip), vehicle: saline
[10] = dose: 100.0 mg/kg/injection, schedule: Q01DX001 (ip), vehicle: saline
[11] = dose: 25.0 mg/kg/injection, schedule: Q01DX009 (ip), vehicle: saline with Tween-80
[12] = dose: 50.0 mg/kg/injection, schedule: Q01DX009 (ip), vehicle: saline with Tween-80
[13] = dose: 200.0 mg/kg/injection, schedule: Q01DX009 (ip), vehicle: Klucel (hydroxypropylcellulose) (HPC)
[14] = dose: 400.0 mg/kg/injection, schedule: Q01DX009 (ip), vehicle: Klucel (hydroxypropylcellulose) (HPC)

Measured: T/C

C[CH2][Pb]([CH2]C)([CH2]C)[O]C(=O)C(Cl)(Cl)Cl
inactive: dose: 0.39 mg/kg/injection, schedule: Q01DX009 (ip), vehicle: other 101 % of control and 105 % of control | dose: 0.78 mg/kg/injection, schedule: Q01DX009 (ip), vehicle: other 102 % of control and 90 % of control | dose: 1.5 mg/kg/injection, schedule: Q01DX001 (ip), vehicle: other 113 % of control | dose: 1.5 mg/kg/injection, schedule: Q04DX002 (ip), vehicle: other 100 % of control | dose: 1.56 mg/kg/injection, schedule: Q01DX009 (ip), vehicle: other 93 % of control | dose: 3.0 mg/kg/injection, schedule: Q01DX001 (ip), vehicle: other 103 % of control | dose: 3.0 mg/kg/injection, schedule: Q04DX002 (ip), vehicle: other 100 % of control | dose: 6.0 mg/kg/injection, schedule: Q01DX001 (ip), vehicle: other 107 % of control | dose: 6.0 mg/kg/injection, schedule: Q04DX002 (ip), vehicle: other 109 % of control | dose: 6.25 mg/kg/injection, schedule: Q04DX003 (ip), vehicle: other 92 % of control | dose: 12.0 mg/kg/injection, schedule: Q04DX002 (ip), vehicle: other 101 % of control | dose: 12.5 mg/kg/injection, schedule: Q01DX001 (ip), vehicle: other 89 % of control | dose: 12.5 mg/kg/injection, schedule: Q04DX003 (ip), vehicle: other 97 % of control | dose: 25.0 mg/kg/injection, schedule: Q01DX001 (ip), vehicle: other 100 % of control | dose: 25.0 mg/kg/injection, schedule: Q04DX002 (ip), vehicle: carboxymethylcellulose (CMC) 94 % of control and 102 % of control | dose: 25.0 mg/kg/injection, schedule: Q04DX003 (ip), vehicle: other 87 % of control

[O]=[Sb]([OH])([c]1ccccc1)[c]1ccccc1
inactive: dose: 10.0 mg/kg/injection, schedule: Q01DX001 (ip), vehicle: saline 87 % of control | dose: 20.0 mg/kg/injection, schedule: Q01DX001 (ip), vehicle: saline 91 % of control

CCOC(=O)c1[nH]c(C)c(CCC(=O)OC)c1C
inactive: [1] 103 % of control | [2] 95 % of control | [3] 107 % of control | [4] 93 % of control | [5] 100 % of control | dose: 400.0 mg/kg/injection, schedule: Q01DX001 (ip), vehicle: Klucel (hydroxypropylcellulose) (HPC) 95 % of control

CC1(C)OC2COC(c3cc(C(N)=O)n[nH]3)C2O1 (stereo not given)
inactive: [6] 97 % of control | [7] 100 % of control | [8] 100 % of control

Cn1cc(N)c(=O)[nH]c1=O
inactive: [9] 101 % of control | [10] 101 % of control | dose: 200.0 mg/kg/injection, schedule: Q01DX001 (ip), vehicle: saline 101 % of control | dose: 400.0 mg/kg/injection, schedule: Q01DX001 (ip), vehicle: saline 103 % of control

CN(C)/C=N/NC(=O)C(O)(c1ccccc1)c1ccccc1
inactive: dose: 75.0 mg/kg/injection, schedule: Q01DX009 (ip), vehicle: Klucel (hydroxypropylcellulose) (HPC) 105 % of control | dose: 150.0 mg/kg/injection, schedule: Q01DX009 (ip), vehicle: Klucel (hydroxypropylcellulose) (HPC) 100 % of control | [5] 95 % of control

CC(C)CCCC(C)C1CCC2C3CCC4CC(N5CCCC5)=CCC4(C)C3CCC12C (stereo not given)
inactive: dose: 75.0 mg/kg/injection, schedule: Q04DX003 (sc), vehicle: steriod suspending solution 96 % of control | dose: 150.0 mg/kg/injection, schedule: Q04DX003 (sc), vehicle: steriod suspending solution 96 % of control | dose: 300.0 mg/kg/injection, schedule: Q04DX003 (sc), vehicle: steriod suspending solution 102 % of control

O=C(O)C1CCC(=O)N1C(=O)OCc1ccccc1 (stereo not given)
inactive: [6] 100 % of control | [7] 97 % of control | [8] 95 % of control

CC(=O)CSc1ccccn1
inactive: dose: 100.0 mg/kg/injection, schedule: Q01DX001 (ip), vehicle: carboxymethylcellulose (CMC) 102 % of control | dose: 200.0 mg/kg/injection, schedule: Q01DX001 (ip), vehicle: carboxymethylcellulose (CMC) 94 % of control | dose: 400.0 mg/kg/injection, schedule: Q01DX001 (ip), vehicle: carboxymethylcellulose (CMC) 96 % of control

CN/N=C/c1ccccc1
inactive: dose: 12.5 mg/kg/injection, schedule: Q01DX009 (ip), vehicle: saline with Tween-80 102 % of control | [11] 107 % of control | [12] 97 % of control and 112 % of control | dose: 100.0 mg/kg/injection, schedule: Q04DX002 (ip), vehicle: saline with Tween-80 95 % of control | dose: 200.0 mg/kg/injection, schedule: Q04DX002 (ip), vehicle: saline with Tween-80 92 % of control

CN(C)C(=Nc1ccc(NC(=O)c2ccc(C(=O)Nc3ccc(N=C(Nc4ccccc4)N(C)C)cc3)cc2)cc1)Nc1ccccc1
inactive: dose: 1.5 mg/kg/injection, schedule: Q01DX Z (ip), vehicle: carboxymethylcellulose (CMC) 95 % of control | dose: 3.0 mg/kg/injection, schedule: Q01DX Z (ip), vehicle: carboxymethylcellulose (CMC) 97 % of control | dose: 6.0 mg/kg/injection, schedule: Q01DX Z (ip), vehicle: carboxymethylcellulose (CMC) 107 % of control | dose: 12.0 mg/kg/injection, schedule: Q01DX Z (ip), vehicle: carboxymethylcellulose (CMC) 89 % of control

O=C(Nc1ccccc1C(=O)N/N=C/c1ccccc1O)c1ccccc1Cl
inactive: [3] 94 % of control | [13] 94 % of control | [14] 94 % of control

OCC1OC(n2cncn2)C(O)C1O (stereo not given)
inactive: dose: 100.0 mg/kg/injection, schedule: Q01DX005 (ip), vehicle: saline 102 % of control and 111 % of control

CCSCCC(=O)O
inactive: dose: 50.0 mg/kg/injection, schedule: Q01DX001 (ip), vehicle: Klucel (hydroxypropylcellulose) (HPC) 97 % of control | [2] 92 % of control | [4] 97 % of control

CN(Cc1ccccc1)Cc1ccccc1
inactive: [1] 100 % of control | [3] 100 % of control | dose: 100.0 mg/kg/injection, schedule: Q04DX003 (ip), vehicle: Klucel (hydroxypropylcellulose) (HPC) 97 % of control | [13] 92 % of control | dose: 200.0 mg/kg/injection, schedule: Q04DX003 (ip), vehicle: Klucel (hydroxypropylcellulose) (HPC) 97 % of control

CC(=O)CSc1nc2ccccc2s1
inactive: [1] 95 % of control | [3] 104 % of control | [13] 111 % of control

NC(=O)c1cc(Cl)ccc1OC(=O)Nc1ccccc1F
inactive: [3] 115 % of control | [13] 102 % of control | [14] 98 % of control

CCN=C(N)N=C(N)N
inactive: dose: 25.0 mg/kg/injection, schedule: Q01DX001 (ip), vehicle: saline 96 % of control | [9] 106 % of control | [10] 102 % of control

COC(=O)Nc1cccc(NC(=O)C(=O)O)c1
inactive: [11] 105 % of control | dose: 25.0 mg/kg/injection, schedule: Q04DX003 (ip), vehicle: saline with Tween-80 107 % of control | [12] 98 % of control | dose: 50.0 mg/kg/injection, schedule: Q04DX003 (ip), vehicle: saline with Tween-80 105 % of control | dose: 100.0 mg/kg/injection, schedule: Q01DX009 (ip), vehicle: saline with Tween-80 102 % of control | [6] 94 % of control and 100 % of control | [7] 105 % of control
